# Experimental data taken from patent publication US10808230B2, “Selection methods for genetically-modified T cells” (BOARD OF REGENTS, THE UNIVERSITY OF TEXAS SYSTEM, priority 2015, dated 2020).
# Entries after “also recorded” stand apart in the source; their conditions may differ. Read-outs that look alike come from different tables or passages of the source.
# Legend:
# Type in all cases: cell-based, human
# [1] = tested on: TCD4, FoxP3; test: Selection or depletion of TCD4, FoxP3 in PBMC stimulated with anti-CD3/CD28 and IL-2 in presence of drug; details: for Selection or depletion of TCD4, FoxP3, dose dependence: thawed PBMC, 7 days; for Selection of TCD4, FoxP3 in surviving population at lethal dose: freshly derived PBMC, day 7
# Experimental: (§1) Culture Conditions: Acellular stimulation was accomplished as previously described using soluble anti-CD3—30 ng/mL, anti-CD28—100 ng/mL, and human IL-2—50 IU/mL, as previously described. […] Acellular stimulation experiments received addition of toxic drug or treatment on the same day as stimulation.
# Cultured T cells were washed in FACS staining solution[95] before surface antibody staining was performed in FACS staining solution with fluorochrome-conjugated antibodies at 4° C. for at least 30 minutes. Intracellular transcription factor and cytokine staining utilized the FoxP3/transcription factor staining buffer set manufacturer's protocol (eBioscience, 00-5523-00), and was performed following surface staining. The BD FACSCalibur (BD Biosciences) analyzed most samples expressing FoxP3. Flow cytometry data analysis utilized FlowJo v 10.0.5 (Tree Star Inc., Ashland, Oreg.). Flow cytometric imaging of cells stained for phosphorylated antigens was accomplished using the ImageStreamX Mark II (Amnis, Seattle, Wash.) with the following protocol; after surface staining, samples were fixed in 100% methanol (Sigma) for 1 hour at 4° C. before washing and staining in FoxP3/transcription factor staining buffer set wash buffer as outlined by the manufacturer's protocol. Analysis of image cytometry data utilized Amnis IDEAS v 6.0.
# Drug Selection of TCD4, FoxP3 by MTX Occurs in Part Through Toxicity. In order to determine how MTX contributes to the selection of TCD4, FoxP3, freshly derived PBMC were stimulated with anti-CD3/CD28 antibodies and IL-2 in the presence of cytotoxic drugs or lethal γ-irradiation. […] See Bar-Nun S. et al., Biochimica et biophysica acta 1983, 741(1):123-127. […] See Cao M. et al., International journal of radiation biology 2011, 87(1):71-80.
# [2] = tested on: PBMC
# Experimental: as §1
# Drug Selection of TCD4, FoxP3 by MTX Occurs in Part Through Toxicity. In order to determine how MTX contributes to the selection of TCD4, FoxP3, freshly derived PBMC were stimulated with anti-CD3/CD28 antibodies and IL-2 in the presence of cytotoxic drugs or lethal γ-irradiation. After 7 days there was a significant difference in survival markers Annexin V and 7-AAD in stimulated T cells receiving any cytotoxic insult with stimulation (FIG. 1B-I). The selection of TCD4, FoxP3 was not as consistent as cytotoxicity. […] With the exception of ribosomal elongation inhibitor G418, each cytotoxic treatment appeared to increase the percentage of surviving TCD4, FoxP3. See Bar-Nun S. et al., Biochimica et biophysica acta 1983, 741(1):123-127. […] Without wishing to be bound by theory, this pathway is likely related to the reduced proliferation rate of Treg, and appears to be ribosomally mediated as G418 can inhibit this general trend of increasing TCD4, FoxP3 percentage. See Cao M. et al., International journal of radiation biology 2011, 87(1):71-80.
# [3] = tested on: Treg; test: Sorted Treg and Teff treated with drug for 7 days, co-cultured with AaPC to Day 21; details: for Expression of CD25, CTLA-4, or loss of IL-2: Day 21; for Expression of Treg-specific marker LAP: Day 21, early drug treatment
# Excerpt: Healthy donor derived peripheral blood from MDACC Blood Bank, Houston, Tex., was subjected to density gradient centrifugation to isolate mononuclear cells which were either rested in complete media (CM) or frozen as previously outlined. The use of rested or frozen peripheral blood derived mononuclear cells (PBMC) is outlined in each experiment. T cells from PBMC were stimulated using thawed OKT3 antibody-loaded K562 clone #4, an activating and propagating cell (AaPC). See Singh H, et al, PloS one 2013, 8(5). The presence of mycoplasma was tested in AaPC before stimulation of T cells. Cell counting was accomplished by 0.1% Trypan Blue (Sigma-Aldrich, T8154) exclusion using automated cell counting (Nexcelcom, Lawrence, Mass.). Cell Isolation was accomplished using magnetic bead based sorting with the CD4+, CD25+ Regulatory T Cell Isolation Kit following the manufacturer's instructions (Miltenyi Biotec, San Diego, Calif., 130-091-301). Briefly, CD4^+ T cells were negatively selected before sorting one time with anti-CD25 beads was used to differentiate between effector T cells (CD25^neg) and T^reg (CD25^pos).
# Sorted Treg Differentiate the Effects of MTX, 5-FU, and G418 on Selection in Bulk PBMC. Magnetic sorting for CD4 and CD25 expressing PBMC yielded a CD4+ CD25+ population that is widely considered to contain Treg, and a CD25neg population of effector T cells (Teff). See Miyara M. et al., Immunity 2009, 30(6):899-911. These populations were treated with the same concentrations of MTX, 5-FU, G418, or no treatment, as above, for the first 7 days of co-culture with AaPC. After this period of time, co-culture continued without drug by stimulating with AaPC every 7 days until Day 21. Cells were assayed at this time for expression of CD25, CTLA-4, LAP, and IL-2, as before. The experimental outline can be seen in FIG. 15A. A [^3H] thymidine incorporation assay was also performed to determine the effect of each drug on the functionality of propagated Treg.
# [4] = tested on: TCD4, FoxP3; test: Depletion of TCD4, FoxP3 in resting, unstimulated PBMC
# Excerpt: Representative flow diagrams of resting PBMC in FIG. 14D—upper panel show the loss in expression of FoxP3 for CD4+ T cells after treatment with G418. […] Thus, […] TCD4, FoxP3 are depleted following treatment with aminoglycoside G418.
# [5] = tested on: Teff; test: [3H] thymidine incorporation suppression assay, treated Treg mixed with untreated Teff; details: 72 hour suppression assay
# Experimental: A thymidine incorporation assay was performed with anti-CD3/CD28 and IL-2 used to stimulate each well containing 2*10^5 viable cells. Varying ratios of effector T cells (Teff) to Treg were combined in each well and all wells were run in triplicate in U-bottom 96 well plates. At 48 hours 1 μCi [^3H] Thymidine (Perkin-Elmer, Waltham, Mass.) was added to each well, and 24 hours later the cells were assessed for radioactivity on a Top Count NXT (Perkin-Elmer). Treg mediated suppression of growth was determined by the following equation: (No Treatment Teff [cpm]−(Treg & No Treatment Teff [cpm]))/No Treatment Teff [cpm].
# [6] = tested on: Jurkat; test: AThyR transgene selection in electroporated Jurkat, eGFP+ viable cells by PI exclusion; details: anti-folate toxicity
# Experimental: The Amaxa Nucleofector® II (Lonza, Allendale, N.J.) was used to electroporate both Jurkat and human PBMC. Electroporation of Jurkat cells utilized a modified buffer (Chicaybam et al., Proceedings of the National Academy of Sciences of the United States of America 2002, 99(6):3400-3405) containing 5 mM KCl, 15 mM MgCl2, 120 mM Na2HPO4/NaH2PO4, pH 7.2, and 50 mM DMSO, where 10^6 Jurkat cells per cuvette were electroporated using program T-14 before immediate transfer to CM. The addition of drug occurred 48 hours after electroporation and cell culture remained undisturbed until sampling for gene expression on days 10-12 post electroporation. Human PBMC electroporation followed a previously described protocol (Rushworth et al., supra). […]
# To test the enhanced survival of each AThyR, constructs individually expressing DHFR^FS, TYMS^SS, and NeoR were ligated into the same backbone containing Sleeping Beauty (SB) transposable elements upstream of eGFP (FIG. 1B), eGFP was used to track the predominance of surviving genetically-modified T cells. […] Jurkat were assessed for eGFP expression in viable cells by propidium iodide (PI) exclusion on day 10-12 (FIG. 1C). […] Overall survival and mean fluorescence intensity (MFI) of eGFP are also given in FIG. 2AI and AII, respectively.
Compound,"Selection or depletion of TCD4, FoxP3, dose dependence [1]","Selection of TCD4, FoxP3 in surviving population at lethal dose [1]",Suppression by treated Treg above untreated Treg [5],"Expression of CD25, CTLA-4, or loss of IL-2 [3]",Expression of Treg-specific marker LAP [3],"Cytotoxicity, dose dependence [2]",also measured
Cc1c(N)nc([C@H](CC(N)=O)NC[C@H](N)C(N)=O)nc1C(=O)N[C@H](C(=O)N[C@H](C)[C@@H](O)[C@H](C)C(=O)N[C@H](C(=O)NCCC1=N[C@@H](c2nc(C(=O)NCCCCN=C(N)N)cs2)CS1)[C@@H](C)O)[C@@H](O[C@@H]1O[C@@H](CO)[C@@H](O)[C@H](O)[C@@H]1O[C@H]1O[C@H](CO)[C@@H](O)[C@H](OC(N)=O)[C@@H]1O)c1cnc[nH]1 [Zeocin],insignificant,–,–,–,–,–,–
CN[C@@H]1[C@@H](O)[C@@H](O[C@@H]2[C@@H](O)[C@H](O[C@H]3O[C@H]([C@@H](C)O)[C@@H](O)[C@H](O)[C@H]3N)[C@@H](N)C[C@H]2N)OC[C@]1(C)O [G418],"significantly depleted TCD4, FoxP3 at two moderate drug doses; also recorded: Depletion",depleted,–,–,–,–,"Cytotoxicity, dose dependence ([2]; thawed PBMC, 7 days): significantly cytotoxic at all doses tested; Surviving TCD4, FoxP3 in the Treg compartment ([3]; Day 21, drug for first 7 days): persistently decreased surviving Treg; Treg markers (CD25, CTLA-4, decreased IL-2, LAP) with FoxP3 expression ([3]; after stimulation on day 21): decreased; Depletion of TCD4, FoxP3 under resting conditions ([4]; PBMC rested in CM 9 days): Significant depletion; Depletion of CD4+, FoxP3+, Ki-67+ cells ([4]; resting PBMC, 9 days): significant G418 mediated depletion; Depletion of CD4+, FoxP3+, Ki-67neg cells ([4]; resting PBMC, 9 days): not significantly depleted"
gentamicin,–,–,–,–,–,–,"Depletion of TCD4, FoxP3 in resting PBMC ([4]; 7 days): depletion of TCD4, FoxP3"
"O=c1[nH]cc(F)c(=O)[nH]1 [5-FU, 5-fluorouracil]",–,Significant increases,improved suppression,no significant difference,significantly increased,–,–
"CN(Cc1cnc2nc(N)nc(N)c2n1)c1ccc(C(=O)N[C@@H](CCC(=O)O)C(=O)O)cc1 [MTX, methotrexate]","significant elevation of TCD4, FoxP3, at lower doses",Significant increases,improved suppression,no significant difference,significantly increased,cytotoxic at all doses tested,Relative toxicity to T cells [6]: more toxic to T cells than Pem
CO[C@H]1C[C@@H]2CC[C@@H](C)[C@@](O)(O2)C(=O)C(=O)N2CCCC[C@H]2C(=O)O[C@H]([C@H](C)C[C@@H]2CC[C@@H](O)[C@H](OC)C2)CC(=O)[C@H](C)/C=C(\C)[C@@H](O)[C@@H](OC)C(=O)[C@H](C)C[C@H](C)/C=C/C=C/C=C/1C [Rapamycin],–,–,–,–,–,only occurred at the highest doses,–
